Data: article PMC2603005, “Structural insights into phenylethanolamines high-affinity binding site in NR2B from binding and molecular modeling studies” (Molecular Brain, 2008)
Like-named read-outs stand apart in the source and are kept apart here. Blank lines part the entries; values can stand above or below the compound they belong to.

How the values were obtained:
NR1/NR2B(D101A) = system: NR1/NR2B(D101A); design: method as in PMID 14534359; conditions: D101A mutation, HEK293 membranes; cited from earlier work
NR1/NR2B(F176A) = system: NR1/NR2B(F176A); design: method as in PMID 14534359; conditions: F176A mutation, HEK293 membranes; cited from earlier work
NR1/NR2B = target: NR1/NR2B; design: method as in PMID 15769547, PMID 15056006; conditions: NR1/NR2B transfected HEK293 and mouse L(tk-) cell line; cited from earlier work
rat brain cortex = conditions: [3H]ifenprodil binding; cited from earlier work
[1] = target: T1, 6 × His-ATD2B (amino-terminal domain of NR2B subunit), wild type (Rattus norvegicus, UniProt Q00960); experiment: CD ligand displacement: RO25,6981 displacing saturating ifenprodil on 6 × His-ATD2B; format: binding; design: representation of the ATD2B construct (Arg27 to Arg393) with 6xHis-tag and linker; made in house
T1 sequence (Q00960 27-393): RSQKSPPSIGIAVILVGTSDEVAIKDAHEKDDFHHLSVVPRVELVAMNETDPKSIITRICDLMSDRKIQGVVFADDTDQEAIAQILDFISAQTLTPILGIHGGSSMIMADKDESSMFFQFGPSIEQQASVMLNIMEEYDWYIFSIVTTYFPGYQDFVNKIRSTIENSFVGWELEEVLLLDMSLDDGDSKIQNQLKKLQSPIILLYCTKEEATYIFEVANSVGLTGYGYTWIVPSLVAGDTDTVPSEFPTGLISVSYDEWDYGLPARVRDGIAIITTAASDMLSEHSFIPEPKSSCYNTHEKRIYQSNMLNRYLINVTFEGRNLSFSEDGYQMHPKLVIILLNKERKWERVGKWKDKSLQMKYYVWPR
Experimental: DLS measurements were made with DynaPro (Protein Solutions) and CD spectra were measured at 25°C on a Jasco J-715 Spectropolarimeter equipped with a 0.1 cm path-length cuvette (Jasco Corporation, Tokyo, Japan) as described previously. For the CD assays, the refolded protein was concentrated to 1 mg/ml using Vivaspin 2 ml concentrator (Vivascience). […] The CD spectra of the wild-type and mutant 6 × His-ATD2B proteins in the absence and presence of a ligand were recorded from 190 to 250 nm. The CD spectrum of Buffer 2 was subtracted from all the CD spectra obtained. […] All experiments were performed using at least two separate batches of induced and refolded 6 × His-ATD2B proteins (both wild-type and mutants), each batch in duplicates or triplicates. The dose-dependent binding curves of ligands to 6 × His-ATD2B were fitted by the following equation: […]

NR1-1a/NR2B receptors = NR1-1a/NR2B receptors (Rattus norvegicus, UniProt P35439+Q00960); experiment: cell-based
Sequence of NR1-1a/NR2B receptors (Q00960 27-1482, other chains not shown): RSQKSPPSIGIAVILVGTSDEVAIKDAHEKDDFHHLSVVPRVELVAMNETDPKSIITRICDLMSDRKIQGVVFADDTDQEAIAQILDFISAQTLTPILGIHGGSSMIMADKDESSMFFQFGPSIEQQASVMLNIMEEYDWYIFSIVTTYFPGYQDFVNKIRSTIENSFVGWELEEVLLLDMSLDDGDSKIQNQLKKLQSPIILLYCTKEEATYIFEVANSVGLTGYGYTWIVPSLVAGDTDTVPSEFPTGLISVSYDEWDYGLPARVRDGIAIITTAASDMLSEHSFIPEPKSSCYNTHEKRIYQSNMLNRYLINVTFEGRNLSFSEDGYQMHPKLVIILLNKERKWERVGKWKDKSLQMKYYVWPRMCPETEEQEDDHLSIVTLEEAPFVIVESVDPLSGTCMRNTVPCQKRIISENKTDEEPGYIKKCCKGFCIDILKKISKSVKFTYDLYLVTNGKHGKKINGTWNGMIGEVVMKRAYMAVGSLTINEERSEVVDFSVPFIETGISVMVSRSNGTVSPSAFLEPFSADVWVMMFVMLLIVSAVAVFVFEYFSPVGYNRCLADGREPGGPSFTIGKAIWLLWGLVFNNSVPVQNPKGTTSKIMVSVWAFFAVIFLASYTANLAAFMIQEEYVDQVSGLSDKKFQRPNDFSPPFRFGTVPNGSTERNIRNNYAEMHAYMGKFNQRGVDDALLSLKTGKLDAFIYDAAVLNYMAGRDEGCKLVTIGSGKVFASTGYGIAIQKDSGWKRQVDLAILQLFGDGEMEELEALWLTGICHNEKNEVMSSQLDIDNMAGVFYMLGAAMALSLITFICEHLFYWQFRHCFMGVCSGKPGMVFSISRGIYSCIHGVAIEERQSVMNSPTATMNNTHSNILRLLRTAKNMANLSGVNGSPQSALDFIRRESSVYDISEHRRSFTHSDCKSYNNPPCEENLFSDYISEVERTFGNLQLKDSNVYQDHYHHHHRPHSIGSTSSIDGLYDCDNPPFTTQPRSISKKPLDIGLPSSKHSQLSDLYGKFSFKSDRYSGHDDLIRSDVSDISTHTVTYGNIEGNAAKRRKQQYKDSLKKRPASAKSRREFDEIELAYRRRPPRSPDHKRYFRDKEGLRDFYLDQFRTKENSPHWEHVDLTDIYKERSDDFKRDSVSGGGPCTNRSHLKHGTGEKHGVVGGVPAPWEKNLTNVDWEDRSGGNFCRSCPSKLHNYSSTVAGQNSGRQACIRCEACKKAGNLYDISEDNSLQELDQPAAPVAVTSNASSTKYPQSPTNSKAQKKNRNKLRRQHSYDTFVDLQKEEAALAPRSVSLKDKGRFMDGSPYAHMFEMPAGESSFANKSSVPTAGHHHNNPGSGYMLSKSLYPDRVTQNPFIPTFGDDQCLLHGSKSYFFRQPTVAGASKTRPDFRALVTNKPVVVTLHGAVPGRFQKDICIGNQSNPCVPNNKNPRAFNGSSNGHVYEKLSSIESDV

[2] = target: T1, 6 × His-ATD2B (amino-terminal domain of NR2B subunit), wild type; experiment: biochemical

Compound: [^3H]RO25,6981
[3H]RO25,6981 binding to membranes (NR1/NR2B(D101A)): complete loss
[3H]RO25,6981 binding to membranes (NR1/NR2B(F176A)): complete loss

Compound: CC(C(O)c1ccc(O)cc1)N1CCC(Cc2ccccc2)CC1 (stereo not drawn) [[^3H]ifenprodil]
Kd (NR1/NR2B): 34 to 79 nM
Kd (rat brain cortex): 36 nM

Ki ([1]; Affinity (Ki) on displacing ifenprodil): 4 ± 1 nM
Ki ([1]; Affinity (Ki) on displacing ifenprodil, Buffer-12 refolded protein, in presence of saturating 5 μM ifenprodil): 2 ± 1 nM
Ki ([1]; Affinity (Ki) on displacing ifenprodil, Buffer-13 refolded protein, in presence of saturating 5 μM ifenprodil): 3 ± 1 nM
Ki ([1]; range over Buffers -9, -12 and -13, n = 5 per buffer, read-out: Ki values): 2 to 4 nM
IC50 (NR1-1a/NR2B receptors): 59 ± 1 nM
Kd ([2]; Buffer-9 refolded protein, CD at 25°C, mean ± S.E., n = 5): 7 ± 3 nM
Kd ([2]; Buffer-12 refolded protein, CD at 25°C, n = 5): 4 ± 1 nM
Kd ([2]; Buffer-13 refolded protein, CD): 4 ± 2 nM
Compound: C[C@@H](CN1CCC(Cc2ccccc2)CC1)[C@@H](O)c1ccc(O)cc1 [RO25,6981]
